Source: patent US12707555B2, “Low-temperature dielectric barrier discharge devices” (The Trustees of Princeton University, priority 2022, dated 2026)

Experiments:
[1] = tested on: E. coli 10-beta; experiment: Quantitative disinfection of bacteria dried on glass coverslips (CFU count, log reduction); type: cell-based; conditions: 3% H2O2 alone, flex-DBD off; R=0.97
Procedure: (§1) To quantify disinfection, bacteria (E. coli 10-beta, Standard E. coli AMS 198 or OP50-GFP) were inoculated on glass coverslips (25 mm diameter). Four droplets of 5 μl each (20 μl) of the bacterial culture (starting concentration 10^8 CFU/ml) were placed onto each coverslip and allowed to dry for approximately 40 min. The slides with dry bacterial culture were then placed onto the flex-DBD with the inoculated side directly in contact with the discharge. The coverslips were treated for 10, 30, 90, and 270 s. At the end of the treatment time, the treated coverslip was placed in a centrifuge tube with 7.5 ml LB, enough to cover the coverslip. The tubes were vortexed on a medium setting for 20 s to recover the bacteria from the treated surface but not damage the cell membrane. The resulting bacterial suspension was spread on LB-agar plates and incubated for 24 h. Cultures were then counted and the number used to calculate the logarithmic reductions of bacterial concentration. […] Pieces of material were disinfected by soaking for 5 min in a 70% solution of isopropyl alcohol then dried thoroughly for at least 30 min. […] An inoculated glass coverslip was placed on top of the solution with the bacteria in contact with the solution. […] Statistical significance between pairs of treatments was evaluated using repeated measures ANOVA.

[2] = tested on: E. coli AMS 198 (ATCC-11229); experiment: as above; type: cell-based; conditions: 3% H2O2 alone, flex-DBD off; R=0.947
Procedure: as §1

[3] = tested on: E. coli; experiment: Disinfection of inoculated coverslips with flex-DBD in conjunction with 3% H2O2 solution (strain not stated at the result); type: cell-based; conditions: H2O2 with only UV radiation from flex-DBD (UV filter); after the first 30 s
Procedure: Pieces of material were disinfected by soaking for 5 min in a 70% solution of isopropyl alcohol then dried thoroughly for at least 30 min. […] An inoculated glass coverslip was placed on top of the solution with the bacteria in contact with the solution. At the end of each treatment, the coverslip and the cloth were dropped into a centrifuge tube with 7.5 ml of LB solution. The same recovery and plating procedure was used in all experiments. […] To block all the output from the plasma except light, a thin film filter transparent down to 190 nm was placed between the DBD and H2O2. […] When possible, ImageJ (1.53c) software was used to count CFUs, otherwise the counting was done visually. […] All the experiments were performed in triplicates of samples and plates. Statistical significance between pairs of treatments was evaluated using repeated measures ANOVA.

[4] = tested on: bacterial load; conditions: cited from earlier work

In the case of `OO` [H2O2, hydrogen peroxide], the “time for 1 log10 reduction, D” value [1] is reported as 139±5 s, the “time for 1 log10 reduction, D” value [2] is reported as 135±5 s and the “time for 1 log10 reduction, D” value [3] is reported as over 250 s. The reduction ([4]; H2O2 droplets added into a corona discharge) was 6 log10 and the “reduction in the bacterial load” value ([4]; H2O2 vapor added to the plasma effluent) was “greater than 6 log10”.
